Data taken from patent US4789543A, “Neutral technetium 99-m complexes useful as radiodiagnostic agents” (E. I. Du Pont de Nemours and Company, priority 1984, dated 1988).

Legend:
[1] = system: hepatobiliary transit (liver, gall bladder and gastro-intestinal tract); assay: Visualization of hepatobiliary transit by scintillation camera after intravenous injection (rabbit); assay type: in vivo, male New Zealand Albino rabbit
Protocol: A lyophylized vial of HEPATOLITE™ (New England Nuclear Corporation's brand of Technetium Tc^99m Disofenin) is labelled with ^99m Tc-pertechnetate in accordance with manufacturer's directions. At least 1 mCi of the labelled preparation is injected intravenously into a 2.5 Kg male New Zealand Albino rabbit. The rabbit is positioned under a Searle Pho-Gamma scintillation camera in such a way that the liver and gastro-intestinal tract are within the field of view.
Greater than 1 mCi of the ^99m Tc-Cl(SO2)-DMPE complex from either Example 1 or 2 is injected into a rabbit as in Example 3.

hepatobiliary transit = settings: commercially available agent, background statement; cited from earlier work

For `CC(C)c1cccc(C(C)C)c1NC(=O)CN(CC(=O)O)CC(=O)O` (99mTc complex, metal not drawn) [Disofenin], the “sequential images from the time of injection” value ([1]; 2.5 Kg male rabbit, at least 1 mCi i.v.) is given as “initial liver uptake with gradual visualization of the gall bladder and gastro-intestinal tract, analogous to the diagnostically efficacious results obtained in clinical studies of normal healthy humans”, the “time to images of the liver, gall bladder and gastro-intestinal tract (hepatobiliary transit)” value ([1]; rabbit, > 1 mCi (complex) or at least 1 mCi (Disofenin) i.v., sequential images) is given as “about 30 minutes” and the “time to obtain an image of the hepatobiliary transit” value (hepatobiliary transit) is given as at most 30 min.
